Patent publication US20230365589A1, “NOVEL AMINE DERIVATIVES” (Sumitomo Pharma Co., Ltd., priority 2020, published 2023)
Like-named read-outs stand apart in the source and are kept apart here.

Key:
Assay type in all cases: biochemical
DYRK3 = biological target: T1, DYRK3 (Homo sapiens, UniProt O43781); assay: Inhibition test on activity of DYRK family, mobility shift assay (MSA): DYRK3
T1 construct: purchased Carna Biosciences, Inc. 04-133
T1 sequence (O43781 1-568 isoform O43781-2): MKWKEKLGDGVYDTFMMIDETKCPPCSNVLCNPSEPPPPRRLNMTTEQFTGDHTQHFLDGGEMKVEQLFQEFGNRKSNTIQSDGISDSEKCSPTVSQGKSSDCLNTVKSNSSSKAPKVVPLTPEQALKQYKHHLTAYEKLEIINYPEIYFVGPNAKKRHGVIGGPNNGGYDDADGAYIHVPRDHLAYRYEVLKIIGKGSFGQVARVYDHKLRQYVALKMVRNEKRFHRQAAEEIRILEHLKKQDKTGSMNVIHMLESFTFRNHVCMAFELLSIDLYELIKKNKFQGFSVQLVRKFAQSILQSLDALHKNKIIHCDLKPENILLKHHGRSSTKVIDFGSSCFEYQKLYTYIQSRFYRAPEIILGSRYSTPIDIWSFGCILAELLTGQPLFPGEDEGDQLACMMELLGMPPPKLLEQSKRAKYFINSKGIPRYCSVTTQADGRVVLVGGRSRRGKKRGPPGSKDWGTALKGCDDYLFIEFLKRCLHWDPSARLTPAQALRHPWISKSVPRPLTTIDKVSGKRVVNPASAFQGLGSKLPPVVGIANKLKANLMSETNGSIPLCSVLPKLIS
In short: (§1)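 Reactions ran 1 h at room temperature in HEPES buffer pH 7.5 with FITC-DYRKtide as substrate. ATP in the substrate mix was 100 µM for DYRK1A, 200 µM for DYRK1B, 40 µM for DYRK2 and 20 µM for DYRK3. Phosphorylated and unphosphorylated peptide were separated on a LabChip, and IC50 was regressed on log dose.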

DYRK1A = biological target: T2, DYRK1A (Homo sapiens, UniProt Q13627); assay: Inhibition test on activity of DYRK family, mobility shift assay (MSA): DYRK1A
T2 construct: purchased Carna Biosciences, Inc. 04-130
In short: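 IC50 derived by regressing inhibition rate on log compound concentration, using P/(P+S) peak ratios from electrophoretic separation. DYRK1A enzyme solution 0.2 ng/μL, substrate mix with 4 μM FITC-DYRKtide and 100 μM ATP, pH 7.5 HEPES; reaction run 1 h at room temperature.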

DYRK2 = biological target: T3, DYRK2 (Homo sapiens, UniProt Q92630); assay: Inhibition test on activity of DYRK family, mobility shift assay (MSA): DYRK2
T3 construct: purchased Carna Biosciences, Inc. 04-132
T3 sequence (Q92630 74-601 limits assumed): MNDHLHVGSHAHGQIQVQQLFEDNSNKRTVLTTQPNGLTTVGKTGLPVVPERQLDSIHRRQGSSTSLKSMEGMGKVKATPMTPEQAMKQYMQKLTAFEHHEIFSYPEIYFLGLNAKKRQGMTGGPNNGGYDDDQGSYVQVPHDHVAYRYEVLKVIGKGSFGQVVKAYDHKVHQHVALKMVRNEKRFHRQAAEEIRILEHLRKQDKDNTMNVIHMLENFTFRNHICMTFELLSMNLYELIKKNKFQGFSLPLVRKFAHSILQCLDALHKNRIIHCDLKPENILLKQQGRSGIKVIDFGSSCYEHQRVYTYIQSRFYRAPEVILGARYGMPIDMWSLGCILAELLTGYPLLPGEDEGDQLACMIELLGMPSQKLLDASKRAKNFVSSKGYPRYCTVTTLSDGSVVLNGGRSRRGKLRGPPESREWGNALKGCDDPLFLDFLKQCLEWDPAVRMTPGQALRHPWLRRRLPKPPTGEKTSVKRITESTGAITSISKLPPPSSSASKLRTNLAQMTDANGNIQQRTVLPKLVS
In short: as §1

[1] = read-out: Inhibitory activity DYRK 3
[2] = read-out: Inhibitory activity DYRK 1A
[3] = read-out: Inhibitory activity DYRK 2
[4] = MSA, FITC-labeled DYRKtide peptide, ATP 20 μM, read-out: Inhibitory activity DYRK 3 (IC50 class)
[5] = MSA, FITC-labeled DYRKtide peptide, ATP 100 μM, read-out: Inhibitory activity DYRK 1A (IC50 class)
[6] = MSA, FITC-labeled DYRKtide peptide, ATP 40 μM, read-out: Inhibitory activity DYRK 2 (IC50 class)

Structure (SMILES)	IC50 (DYRK3; [1])	IC50 (DYRK1A; [2])	IC50 (DYRK2; [3])	IC50 (DYRK3; [4])	IC50 (DYRK1A; [5])	IC50 (DYRK2; [6])
O=C1N[C@H]2CCN(C3CNC3)C[C@H]2N1c1nc2c3c(ccc2s1)OCC3 [Example 53]				100 to 1000 nM	100 to 1000 nM	≥ 1000 nM
CN1CCC[C@@H]2NC(=O)N(c3nc4c5c(ccc4s3)OCC5)[C@@H]2C1 (relative stereo) [Example 17, cis-3-(7,8-dihydrofuro[3,2-e][1,3]benzothiazol-2-yl)-5-methyloctahydroimidazo[4,5-c]azepin-2(1H)-one]				≥ 1000 nM	10 to 100 nM	≥ 1000 nM
O=C1NC2CCN(CCO)CC2N1c1nc2c3c(ccc2s1)OCC3 (stereo not drawn) [Example 13]				≥ 1000 nM	10 to 100 nM	≥ 1000 nM
O=C1N[C@H]2COCC[C@H]2N1c1nc2c3c(ccc2s1)OCO3 [Example 21, (3aR,7aR)-1-(2H-[1,3]dioxolo[4,5-e][1,3]benzothiazol-7-yl)hexahydropyrano[3,4-d]imidazol-2(3H)-one]				100 to 1000 nM	< 10 nM	100 to 1000 nM
O=C1N[C@@H]2CCN(C3CC3)C[C@@H]2N1c1nc2c3c(ccc2s1)OCC3 (single isomer, unassigned) [Example 109]	≥ 1000 nM	≥ 1000 nM	≥ 1000 nM			
O=C1N[C@H]2COC(F)C[C@H]2N1c1nc2c3c(ccc2s1)OCC3 (stereo partly drawn) [Example 151, (3aR,7aR)-1-(7,8-Dihydrofuro[3,2-e][1,3]benzothiazol-2-yl)-6-fluorohexahydropyrano[3,4-d]imidazol-2(3H)-one]				10 to 100 nM	< 10 nM	100 to 1000 nM
O=C1N[C@@H]2CCN(C3CC3)C[C@@H]2N1c1nc2c3c(ccc2s1)OCO3 (single isomer, unassigned) [Example 35]				≥ 1000 nM	≥ 1000 nM	≥ 1000 nM

The next lines start with the values.

IC50 (DYRK3; [1])	IC50 (DYRK1A; [2])	IC50 (DYRK2; [3])	IC50 (DYRK3; [4])	IC50 (DYRK1A; [5])	IC50 (DYRK2; [6])	Structure (SMILES)
100 to 1000 nM	10 to 100 nM	100 to 1000 nM				O=C1N[C@H]2COCC[C@H]2N1c1nc2c3c(ccc2s1)OCC3 (racemic) [Example 121, rac-(3aR,7aR)-1-(7,8-dihydrofuro[3,2-e][1,3]benzothiazol-2-yl)hexahydropyrano[3,4-d]imidazol-2(3H)-one]
			100 to 1000 nM	100 to 1000 nM	≥ 1000 nM	O=C1N[C@H]2CC3(CC3)NC[C@H]2N1c1nc2c3c(ccc2s1)OCC3 [Example 57]
			100 to 1000 nM	10 to 100 nM	100 to 1000 nM	O=C1N[C@H]2COC(O)C[C@H]2N1c1nc2c3c(ccc2s1)OCC3 (stereo partly drawn) [Example 150, (3aR,7aR)-1-(7,8-Dihydrofuro[3,2-e][1,3]benzothiazol-2-yl)-6-hydroxyhexahydropyrano[3,4-d]imidazol-2(3H)-one]
100 to 1000 nM	< 10 nM	100 to 1000 nM				C#CCN1CC[C@@H]2NC(=O)N(c3nc4c5c(ccc4s3)OCC5)[C@@H]2C1 (racemic) [Example 99, rac-(3aR,7aS)-3-(7,8-dihydrofuro[3,2-e][1,3]benzothiazol-2-yl)-5-(2-propyn-1-yl)octahydro-2H-imidazo[4,5-c]pyridin-2-one]
			≥ 1000 nM	100 to 1000 nM	≥ 1000 nM	CC(C)N1CC2NC(=O)N(c3nc4c5c(ccc4s3)OCC5)C2C1 (stereo not drawn) [Example 16]
			≥ 1000 nM	10 to 100 nM	≥ 1000 nM	O=C1N[C@H]2CCN(C3COC3)C[C@H]2N1c1nc2c3c(ccc2s1)OCO3 (racemic) [Example 81, rac-(3aR,7aS)-3-(2H-[1,3]dioxolo[4,5-e][1,3]benzothiazol-7-yl)-5-(oxetan-3-yl)octahydro-2H-imidazo[4,5-c]pyridin-2-one]
			≥ 1000 nM	10 to 100 nM	≥ 1000 nM	CC(C)N1CC[C@H]2NC(=O)N(c3nc4c5c(ccc4s3)OCC5)[C@H]2C1 (relative stereo) [Example 15, cis-3-(7,8-dihydrofuro[3,2-e][1,3]benzothiazol-2-yl)-5-(propan-2-yl)octahydro-2H-imidazo[4,5-c]pyridin-2-one]
			100 to 1000 nM	10 to 100 nM	100 to 1000 nM	CCN1CCC2C(C1)NC(=O)N2c1nc2c3c(ccc2s1)OCC3 (stereo not drawn) [Example 12]
